IC50 data for 37 compounds are collected here from patent US9169224B2, “Piperazinyl and piperidinyl ureas as modulators of fatty acid amide hydrolase” (Janssen Pharmaceutica NV, priority 2004, dated 2015).

This test concerns the target FAAH (Homo sapiens (Human), UniProt O00519). As to the kind of experiment: Assay Method 1: FAAH assay, T84 cell homogenate, 3H-anandamide hydrolysis. It counts as biochemical. As to conditions: 3H-AEA tracer 200 nM, 1 h at rt. As to the method: T84 frozen pellets (contents of 1-4×15 cm culture dishes) were homogenized in 300 mL of FAAH assay buffer (125 mM Tris, 1 mM EDTA, 0.2% glycerol, 0.02% Triton X-100, 0.4 mM Hepes, pH 9). The assay mixture was prepared from 50 μL of the cell homogenate, 10 μL of the test compound, and 40 μL of anandamide [1-3H-ethanolamine] (^3H-AEA; Perkin-Elmer, 10.3 Ci/mmol), which was added last, for a final tracer concentration of 200 nM. The reaction mixture was incubated at rt for 1 hour (h). During the incubation, 96-well Multiscreen filter plates (catalog number MAFCNOB50; Millipore, Bedford, Mass., USA) were loaded with 25 μL of activated charcoal (Multiscreen column loader, catalog number MACL09625, Millipore) and washed once with 100 μL of MeOH. Also during the incubation, 96-well DYNEX MicroLite plates (catalog number NL510410) were loaded with 100 μL of MicroScint40 (catalog number 6013641, Packard Bioscience, Meriden, Conn., USA). After the 1 h incubation, 60 μL of the reaction mixture were transferred to the charcoal plates, which were then assembled on top of the DYNEX plates using Centrifuge Alignment Frames (catalog number MACF09604, Millipore). The unbound, labeled ethanolamine was centrifuged through to the bottom plate (5 min at 2000 rpm), which was preloaded with the scintillant, as described above. The plates were sealed and left at rt for 1 h before counting on a Hewlett Packard TopCount.

Structures are written as SMILES. Where a name gives a salt, the structure may show the parent alone.

FAAH, sequence (O00519 whole entry): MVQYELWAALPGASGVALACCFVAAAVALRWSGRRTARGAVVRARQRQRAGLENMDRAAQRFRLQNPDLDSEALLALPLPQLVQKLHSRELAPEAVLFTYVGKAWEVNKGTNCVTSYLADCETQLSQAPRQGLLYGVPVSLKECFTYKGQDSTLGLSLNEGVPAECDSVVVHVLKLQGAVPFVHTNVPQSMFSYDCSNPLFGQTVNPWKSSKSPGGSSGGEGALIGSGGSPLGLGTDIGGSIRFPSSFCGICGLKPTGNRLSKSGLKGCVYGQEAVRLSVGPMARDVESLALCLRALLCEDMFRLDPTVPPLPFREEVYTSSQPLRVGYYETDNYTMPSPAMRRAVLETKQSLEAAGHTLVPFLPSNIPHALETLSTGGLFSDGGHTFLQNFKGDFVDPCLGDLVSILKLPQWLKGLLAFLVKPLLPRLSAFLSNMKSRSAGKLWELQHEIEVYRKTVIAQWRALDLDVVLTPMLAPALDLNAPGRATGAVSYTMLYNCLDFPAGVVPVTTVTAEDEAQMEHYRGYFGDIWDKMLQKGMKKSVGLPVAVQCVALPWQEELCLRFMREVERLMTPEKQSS

Take `O=C(Nc1ccncc1)N1CCN(Cc2ccc(Br)c(Br)c2)CC1` [Example 116, 4-(3,4-Dibromo-benzyl)-piperazine-1-carboxylic acid pyridin-4-ylamide]: inhibition was half-maximal at 240 nM (IC50).

As to `O=C(Nc1ccccn1)N1CCN(Cc2ccc(Br)c(Br)c2)CC1` [Example 117, 4-(3,4-Dibromo-benzyl)-piperazine-1-carboxylic acid pyridin-2-ylamide], the midpoint of inhibition, the IC50, lay at 360 nM. The same measure, in the same setting: for `O=C(Nc1cccnc1)N1CCN(Cc2ccc(Br)c(Br)c2)CC1` [Example 118, 4-(3,4-Dibromo-benzyl)-piperazine-1-carboxylic acid pyridin-3-ylamide] the value was 27 nM.

For the compound `O=C(Nc1ccccc1)N1CCN(Cc2ccc(OC3CCCCC3)cc2)CC1` [Example 119, 4-(4-Cyclohexyloxy-benzyl)-piperazine-1-carboxylic acid phenylamide], the IC50 (usually the midpoint of a concentration-inhibition curve) was 1000 nM. The same measure, in the same setting: for `CCCOc1cccc(CN2CCN(C(=O)Nc3ccccc3)CC2)c1` [Example 120, 4-(3-Propoxy-benzyl)-piperazine-1-carboxylic acid phenylamide] the value was 170 nM; for `CC(C)COc1cccc(CN2CCN(C(=O)Nc3ccccc3)CC2)c1` [Example 121, 4-(3-Isobutoxy-benzyl)-piperazine-1-carboxylic acid phenylamide], 210 nM; for `CCOc1cccc(CN2CCN(C(=O)Nc3ccccc3)CC2)c1` [Example 122, 4-(3-Ethoxy-benzyl)-piperazine-1-carboxylic acid phenylamide], 220 nM.

Take `CCCOc1ccc(CN2CCN(C(=O)Nc3ccccc3)CC2)cc1` [Example 123, 4-(4-Propoxy-benzyl)-piperazine-1-carboxylic acid phenylamide]: it took 1500 nM to reach half-maximal inhibition (IC50). For `CC(C)COc1ccc(CN2CCN(C(=O)Nc3ccccc3)CC2)cc1` [Example 124, 4-(4-Isobutoxy-benzyl)-piperazine-1-carboxylic acid phenylamide], half-maximal inhibition (IC50) was put at 1800 nM.

With `CN(C)CCOc1cccc(CN2CCN(C(=O)Nc3ccccc3)CC2)c1` [Example 125, 4-[3-(2-Dimethylamino-ethoxy)-benzyl]-piperazine-1-carboxylic acid phenylamide], the IC50 was determined as 10000 nM. The same measure, in the same setting: for `O=C(Nc1ccccc1)N1CCN(Cc2cccc(OCCN3CCCCC3)c2)CC1` [Example 126, 4-[3-(2-Piperidin-1-yl-ethoxy)-benzyl]-piperazine-1-carboxylic acid phenylamide] the value was 2000 nM.

Compound `CN(C)CCCOc1cccc(CN2CCN(C(=O)Nc3ccccc3)CC2)c1` [Example 127, 4-[3-(3-Dimethylamino-propoxy)-benzyl]-piperazine-1-carboxylic acid phenylamide] showed an IC50 of 2000 nM. The compound `O=C(Nc1ccccc1)N1CCN(Cc2cccc(OCCCN3CCCCC3)c2)CC1` [Example 128, 4-[3-(3-Piperidin-1-yl-propoxy)-benzyl]-piperazine-1-carboxylic acid phenylamide] returned a half-maximal inhibitory concentration (IC50) of 2000 nM. On the same count and under the same terms, for `CCOc1ccc(CN2CCN(C(=O)Nc3ccccc3)CC2)cc1` [Example 129, 4-(4-Ethoxy-benzyl)-piperazine-1-carboxylic acid phenylamide] the value was 2000 nM; for `O=C(Nc1ccccc1)N1CCN(Cc2cccc(Oc3cccc(Cl)c3)c2)CC1` [Example 130, 4-[3-(3-Chloro-phenoxy)-benzyl]-piperazine-1-carboxylic acid phenylamide], 160 nM; for `O=C(Nc1ccccc1)N1CCN(Cc2cccc(Oc3ccc4ccccc4c3)c2)CC1` [Example 131, 4-[3-(Naphthalen-2-yloxy)-benzyl]-piperazine-1-carboxylic acid phenylamide], 33 nM. On the same count and under the same terms, with `O=C(Nc1ccccc1)N1CCN(Cc2cccc(Oc3cc4ccccc4c4ccccc34)c2)CC1` [Example 132, 4-[3-(Phenanthren-9-yloxy)-benzyl]-piperazine-1-carboxylic acid phenylamide] the figure was 3000 nM; with `COC(=O)c1ccc(Oc2cccc(CN3CCN(C(=O)Nc4ccccc4)CC3)c2)cc1` [Example 133, 4-[3-(4-Phenylcarbamoyl-piperazin-1-ylmethyl)-phenoxy]-benzoic acid methyl ester], 50 nM; with `CS(=O)(=O)c1ccc(Oc2cccc(CN3CCN(C(=O)Nc4ccccc4)CC3)c2)cc1` [Example 134, 4-[3-(4-Methanesulfonyl-phenoxy)-benzyl]-piperazine-1-carboxylic acid phenylamide], 65 nM.

Turning to `COc1cccc(Oc2cccc(CN3CCN(C(=O)Nc4ccccc4)CC3)c2)c1` [Example 135, 4-[3-(3-Methoxy-phenoxy)-benzyl]-piperazine-1-carboxylic acid phenylamide], the 50% inhibitory concentration (IC50) came out at 83 nM. Still for that read-out and setting: for `O=C(Nc1ccccc1)N1CCN(Cc2cccc(Oc3ccc4c(c3)OCO4)c2)CC1` [Example 136, 4-[3-(Benzo[1,3]dioxol-5-yloxy)-benzyl]-piperazine-1-carboxylic acid phenylamide] the value was 67 nM; for `CS(=O)(=O)Oc1cccc(CN2CCN(C(=O)Nc3ccccc3)CC2)c1` [Example 137, Methanesulfonic acid 3-(4-phenylcarbamoyl-piperazin-1-ylmethyl)-phenyl ester], 1000 nM; for `O=C(Nc1ccccc1)N1CCN(Cc2cccc(OS(=O)(=O)c3ccccc3)c2)CC1` [Example 138, Benzenesulfonic acid 3-(4-phenylcarbamoyl-piperazin-1-ylmethyl)-phenyl ester], 59 nM.

As for `O=C(Nc1ccccc1)N1CCN(Cc2cccc(OS(=O)(=O)c3ccc(Cl)cc3)c2)CC1` [Example 139, 4-Chloro-benzenesulfonic acid 3-(4-phenylcarbamoyl-piperazin-1-ylmethyl)-phenyl ester], the midpoint of inhibition, the IC50, lay at 380 nM. Turning to `COc1cc(Br)cc(CN2CCN(C(=O)Nc3ccccc3)CC2)c1O` [Example 161, 4-(5-Bromo-2-hydroxy-3-methoxy-benzyl)-piperazine-1-carboxylic acid phenylamide hydrochloride], half-maximal inhibition (hydrochloride) (IC50) was put at 210 nM. Take `O=C(Nc1ccccc1)N1CCN(Cc2ccc3ccccc3n2)CC1` [Example 163, 4-Quinolin-2-ylmethyl-piperazine-1-carboxylic acid phenylamide dihydrochloride]: the midpoint of inhibition (dihydrochloride), the IC50, lay at 23 nM. The compound `O=C(Nc1ccccc1)N1CCN(Cc2cccc(I)c2)CC1` [Example A, 4-(3-Iodo-benzyl)-piperazine-1-carboxylic acid phenylamide, reference compound] showed an IC50 of 120 nM. Where the note is “hydrochloride”, `O=C(Nc1ccccc1)N1CCN(Cc2ccc3c(c2)OCO3)CC1` [Example B1, 4-Benzo[1,3]dioxol-5-ylmethyl-piperazine-1-carboxylic acid phenylamide hydrochloride, reference compound] yielded a half-inhibitory concentration (IC50) of 1200 nM. `O=C(Nc1ccccc1)N1CCN(Cc2cccc(Br)c2)CC1` [Example C, 4-(3-Bromo-benzyl)-piperazine-1-carboxylic acid phenylamide, reference compound] registered an IC50 of 280 nM.

`Cc1ccc(CN2CCN(C(=O)Nc3ccccc3)CC2)cc1C` [Example D, 4-(3,4-Dimethyl-benzyl)-piperazine-1-carboxylic acid phenylamide, reference compound] yielded a half-inhibitory concentration (IC50) of 630 nM. The compound `Cc1ccc(CN2CCN(C(=O)Nc3ccccc3)CC2)cc1` [Example E, 4-(4-Methyl-benzyl)-piperazine-1-carboxylic acid phenylamide, reference compound] registered an IC50 of 1300 nM.

As to `O=C(Nc1ccccc1)N1CCN(CCc2ccccc2)CC1` [Example F, 4-Phenethyl-piperazine-1-carboxylic acid phenylamide, reference compound], the half-maximal inhibitory concentration (IC50) was greater than 10000 nM. `O=C(Nc1ccccc1)N1CCC(Cc2ccccc2)CC1` [Example H, 4-Benzyl-piperidine-1-carboxylic acid phenylamide, reference compound]: the IC50 came to 270 nM. Same read-out and setting: for `O=C(Nc1ccccc1)N1CCN(CCCc2ccccc2)CC1` [Example I, 4-(3-Phenyl-propyl)-piperazine-1-carboxylic acid phenylamide, reference compound] the value was 1700 nM. Still for that read-out and setting: for `O=C(Nc1ccccc1)N1CCN(Cc2ccccc2)CC1` [Example J, 4-Benzyl-piperazine-1-carboxylic acid phenylamide, reference compound] the value was 2000 nM; for `O=C(Nc1ccccc1)N1CCN(Cc2ccccc2OCc2ccccc2)CC1` [Example K, 4-(2-Benzyloxy-benzyl)-piperazine-1-carboxylic acid phenylamide, reference compound], greater than 10000 nM; for `O=C(Nc1ccccc1)N1CCN(C2CCc3cc(Br)ccc3C2)CC1` (stereo not shown) [Example L, 4-(6-Bromo-1,2,3,4-tetrahydro-naphthalen-2-yl)-piperazine-1-carboxylic acid phenylamide, reference compound], 370 nM.
